Experiment [1] has as its system human mesenchymal stem cells (BMMSC). Briefly: Cell proliferation, CellTiter 96 (MTT). The note with it: TGF-β1 10 ng/ml; stayed at a lower proliferation rate than the control groups. It is filed as cell-based. On the procedure:
(§1) The cells were trypsinized and then counted using trypan blue. 60×10^3 or 15×10^3 mesenchymal stem cells were seeded in a 25 cm^2 cell culture bottle or in a 12-well plate. Each vessel was charged with an appropriate amount of standard medium (control group) or a medium which contained the joint or meniscus extract (of bovine origin) in a dilute solution of 1:25 or 1:50. Recombinant TGF-β1 protein (R&D Systems) with a concentration of 10 ng/ml was used for chondrocytic differentiation of the BMMSC as positive control. Cell supernatants were collected and stored at −80° C.
Investigations on the cell proliferation were carried out using “CellTiter 96 Non-Radio-active” (Promega). This is a method based on 3-(4,5-dimethylthiazol-2-yl)-2,5-diphenyltetrazolium bromide (MTT) which determines the property of metabolically active cells of converting a tetrazolium salt. For example, the conversion of pale yellow MTT by cellular dehydrogenases into the dark blue, water-insoluble formazan is proportional to the activity of the dehydrogenases and thus to the survival rate of the cells. The absorbance is measured at a wavelength of 595 nm. The cells were counted and seeded in a density of […] in a 96-well round-bottom plate. The cell proliferation was determined on day 1, 3, 7 and 14. […] The absorbance was measured at the wavelength of 595 nm with a reference wavelength of 655 nm.

Experiment [2] concerns BMMSC. Briefly: Quantification of chondroitin sulfate (Alcian blue). It is filed as cell-based, human. The conditions noted are these: parallel addition of 10 ng/ml TGF-β1. On the procedure:
as §1
The cells were washed with the PBS and then incubated with Alcian blue stain (1% Alcian blue in 3% strength acetic acid) for 20 minutes. The cells were decolorized by washing three times with 3% strength acetic acid and washing once with water. To quantify the stain which has been taken up, the cells were solubilized by shaking in 1% strength SDS solution at room temperature for 30 minutes and then heating at 90° C. for one hour. The absorbance was detected at the wavelength of 595 nm.

Experiment [3] has as its system BMMSC. Nature of the experiment: Aggrecan immunofluorescence. It is filed as cell-based, human. The conditions noted are these: day 14; recombinant TGF-β1 only. On the procedure:
The cells were seeded in a density of 15×10^3 in a 12-well plate. 14 days after the treatment with the extracts, the cells were washed with PBS and then fixed with ice-cold 70% strength ethanol for at least 18 hours. The cells were then blocked in 3% strength goat serum (normal goat serum NGS) for one hour, and thereafter mouse anti-Aggrecan antibodies (Chemicon) were used with a concentration of 1 μg/ml and incubated at 4° C. for at least 18 hours. The primary antibodies were then removed, the cells were washed three times with PBS and subsequently incubated with anti-mouse FITC-conjugated IgM (Molecular Probes) in a ratio of 1:1000 for one hour. The secondary antibodies were removed and the cells were washed three times with the PBS. A negative control was carried out with the secondary antibody. After the incubation, the cells were washed, put on supports and inspected using a fluorescence microscope.

The subject of experiment [4] is BMMSC. Nature of the experiment: Real time RT-PCR of cartilage-specific differentiation markers (SOX9, Aggrecan). It is filed as cell-based, human. The note with it: transcription level; treatment with TGF-β1. On the procedure: Total cellular ribonucleic acid (RNA) was extracted using “NucleoSpin RNA II” from Macherey-Nagel. 1 μg of the RNA was amplified using a “one-step RT-PCR kit” (ABgene, UK). Real time (RT) PCR primers specific for collagen type I, SOX9, Aggrecan and glyceraldehyde-3-phosphate dehydrogenase (GAPDH) were used. Amplification of the so-called housekeeping gene GAPDH was used to verify the quality of the RNA and ensure uniform loading of resolving gels with the samples. A real time reverse transcription PCR was carried out using a LightCycler (Roche Diagnostic). The RT-PCR conditions included an RT step of 20 minutes at 61° C. to produce single-stranded cDNA from mRNA, followed by an inactivation of reverse transcriptase and denaturation at 95° C. for 30 seconds. 40 amplification cycles of one second at 95° C., of 15 seconds at 58° C. and of 13 seconds at 72° C. were carried out. Finally, a cooling step of 30 seconds at 40° C. was carried out.
For orientation: Quantitative PCR measures a nucleic acid by following its amplification.

In the case of “TGF-β1: Recombinant TGF-β1 protein (R&D Systems), 10 ng/ml, positive control for chondrocytic differentiation”, the cell proliferation entry in experiment [1] is reported as “graduated increase”. Besides, in experiment [2], the chondroitin sulfate entry is on record as “increase in chondroitin sulfate”. The “number of aggrecan-positive cells compared with the untreated control samples” value in experiment [3] is listed as “larger numbers”. Also, the mRNA for aggrecan entry in experiment [4] is on record as “significantly increased”.

Values taken from patent publication US20100003754A1, “METHODS OF DIFFERENTIATING STEM CELLS” (Ossacur AG, priority 2006, published 2010).
